Source: US20240156960A1 (priority 2020, published 2024)
Where two headings read alike, the source gives them in different places.

What was measured:
[1] = test system: coronavirus named in the cell (SARS-CoV2, SARS-CoV1), S protein; settings: cited from earlier work
[2] = test system: coronavirus named in the cell (SARS-CoV2, SARS-CoV1); settings: cited from earlier work
[3] = Critical toxicity markers after dexamethasone pretreatment and IV DNA vector; settings: pre-dosed IP 1 to 40 mg/kg
SARS-CoV2 [4] = settings: Protein + Epitope: S; literature source; cited from earlier work
SARS-CoV1 [5] = settings: cited from earlier work
SARS-CoV1 [6] = settings: cited from earlier work; remark: listed apart in the source
SARS-CoV2 S; RBD = SARS-CoV2 S; RBD (Severe acute respiratory syndrome coronavirus 2, UniProt P0DTC2); settings: epitope S; cited from earlier work
[7] = mouse, in vivo
SARS-CoV2 [8] = settings: SARS-CoV2 listed as bound; cited from earlier work
SARS-CoV2 [9] = settings: SARS-CoV2 listed as neutralised; cited from earlier work
SARS-CoV2 [10] = settings: source Seth Zost et al., 2020; cited from earlier work
[11] = Serum hG-CSF protein by ELISA after DOTAP liposomes, hG-CSF plasmid DNA and immuno-modulating agents; format: in vivo, CD-1 mice
[12] = Serum ALT/AST levels (toxicity) after liposome and DNA injection
mouse IGF-1 = test: Serum levels of mouse IGF-1 by ELISA (hGH bioactivity); format: in vivo; settings: CD-1 mice, day 127 after injection (Example 10)
[13] = IP 2 hours prior to lipid and DNA injection (Example 20 Part 4)
[14] = agent in liposomes pre-injected IP prior to cationic liposomes (Example 16 Part 3)
[15] = agent incorporated into cationic liposomes (900 nmol DOTAP SUV), 70 ug hG-CSF DNA, day 1

## 4A8
[1]
  Binds to: SARS-CoV2
[2]
  Neutralising Vs: SARS-CoV2

## C[C@@H]1C[C@H]2[C@@H]3CCC4=CC(=O)C=C[C@]4(C)[C@@]3(F)[C@@H](O)C[C@]2(C)[C@@]1(O)C(=O)CO [dexamethasone]
[3]
  critical toxicity markers: at or closely approximating background control levels

## B38
SARS-CoV2 [4]
  Binds to: SARS-CoV2

## BD23
SARS-CoV2 [4]
  Binds to: SARS-CoV2

## C002
SARS-CoV2 [4]
  Binds to: SARS-CoV2
SARS-CoV1 [5]
  Not Neutralising Vs: SARS-CoV1

## C003
SARS-CoV2 [4]
  Binds to: SARS-CoV2
SARS-CoV1 [5]
  Not Neutralising Vs: SARS-CoV1

## C005
SARS-CoV2 [4]
  Binds to: SARS-CoV2
SARS-CoV1 [5]
  Not Neutralising Vs: SARS-CoV1

## C006
SARS-CoV2 [4]
  Binds to: SARS-CoV2
SARS-CoV1 [5]
  Not Neutralising Vs: SARS-CoV1

## C013
SARS-CoV2 [4]
  Binds to: SARS-CoV2
SARS-CoV1 [5]
  Not Neutralising Vs: SARS-CoV1

## C016
SARS-CoV2 [4]
  Binds to: SARS-CoV2
SARS-CoV1 [5]
  Not Neutralising Vs: SARS-CoV1,

## C018
SARS-CoV1 [6]
  Not Neutralising Vs: SARS-CoV1,
SARS-CoV2 S; RBD
  Binds to: SARS-CoV2

## C021
SARS-CoV1 [6]
  Not Neutralising Vs: SARS-CoV1,
SARS-CoV2 S; RBD
  Binds to: SARS-CoV2

## C029
SARS-CoV1 [6]
  Not Neutralising Vs: SARS-CoV1,
SARS-CoV2 S; RBD
  Binds to: SARS-CoV2

## C102
SARS-CoV2 S; RBD
  Binds to: SARS-CoV2

## C107
SARS-CoV1 [6]
  Not Neutralising Vs: SARS-CoV1,
SARS-CoV2 S; RBD
  Binds to: SARS-CoV2

## C112
SARS-CoV2 S; RBD
  Binds to: SARS-CoV2

## C119
SARS-CoV2 S; RBD
  Binds to: SARS-CoV2

## C121
[7]
  duration of fully neutralizing serum levels of each SARS-CoV2-specific mAb: at least 134 days
SARS-CoV2 S; RBD
  Binds to: SARS-CoV2

## CB6
SARS-CoV2 [8]
  Binds to: SARS-CoV2
SARS-CoV2 [9]
  Neutralising Vs: SARS-CoV2

## CoV2-2130
SARS-CoV2 [10]
  Binds to: SARS-CoV2

## CoV2-2196
SARS-CoV2 [10]
  Binds to: SARS-CoV2

## N-Acetyl-De-O-Sulfated Heparin [NSH]
[11]; [13]
  gene expression (serum hG-CSF): further increase gene expression
[12]; IP 0.25 or 1 mg per mouse, 2 hours pre or 2 hours post lipid and DNA injection
  toxicity (serum ALT/AST): reduce toxicity
[12]; [13]
  toxicity (serum ALT/AST): further reducing its toxicity

## dexamethasone 21-palmitate [dexamethasone palmitate]
[11]; 5 mole percent in DOTAP SUV, otherwise ineffective hG-CSF-DNA dose (Example 16 Part 6)
  peak levels of gene expression (serum hG-CSF): further increase peak levels of gene expression
[11]; [14]
  gene expression (serum hG-CSF): further increase gene expression
[11]; [15]
  gene expression (serum hG-CSF): further increase gene expression
[12]; [14]
  toxicity (ALT levels): further decrease toxicity
[12]; [15]
  toxicity (ALT levels): further decrease toxicity

## hGH
Mouse IGF-1
  bioactivity of cDNA-encoded hGH protein (increase of endogenous mouse IGF-1): fully bioactive
